# Data: PMC10985088, “Synthesis and biological evaluation of echinomycin analogues as potential colon cancer agent” (Scientific Reports, 2024)
# What was measured:
# [1] = Hepatic microsomal stability assay, mouse; format: in vitro ADME; conditions: 0.2 mg/mL microsomes, 37 °C, 30 min; for CLint scaled: microsomes, 1 μM; for CLint scaled at 1 μM: mouse liver microsomes, pH 7.4, 1 μM
# Description: (§1) Before investigating the in vivo efficacy of 3, its metabolic stability was evaluated by treatment with human or mouse liver microsomes at 37 °C for 30 min, and the remaining analogues were analyzed by LC–MS/MS (Table 3). […] This means that approximately 67% of 3 was unaffected by human liver microsomes.
# (§2) Basically, the analysis was performed using methods previously reported. Disappearance of the parent compound over time was measured by using the amount of drug at time zero as a reference. After 5 min of preincubation, 1 mM NADPH (final concentration, the same applies to the following, NADPH( +)) or 0.1 M phosphate buffer (pH 7.4, NADPH(−))) was added to a mixture containing 1 μM of the test compound, 0.2 mg/mL of human or mouse liver microsomes (Sekisui XenoTech LLC (Kansas City, KS)), 1 mM EDTA and 0.1 M phosphate buffer (pH 7.4) and incubated at 37 °C for 30 min by rotation at 60 rpm. An aliquot of 50 μL of the incubation mixture was sampled and added to 250 μL of chilled acetonitrile/internal standard (IS). After centrifuging for 15 min at 3150×g (4 °C), the supernatants were analyzed by LC–MS/MS. Hepatic microsomal stability (mL/min/kg, CLint) was calculated according to the previous report, using 48.8 and 45.4 mg MS protein/g liver and 25.7 and 87.5 g liver/kg body weight as scaling factors for human and mouse, respectively.
# (§3) Basically, the analysis was performed using methods previously reported. An LC-MS8060 instrument equipped with a Shimadzu Nexera series LC system (Shimadzu, Kyoto, Japan) was used. All compounds were analyzed in multi-reaction monitoring mode under electron spray ionization conditions. The analytical column used was a […] C18 MGIII (3 μm × 2.0 mmID × 35 mm; OSAKA SODA, Osaka, Japan) at 50 °C. The gradient mobile phase consisted of 0.1% formic acid in water (mobile phase A,) and 0.1% formic acid in acetonitrile (mobile phase B) at a total flow rate of 1 mL/min. The initial mobile phase composition was 10% B, which was held constant for 0.2 min, increased in a linear fashion to 90% B over 1 min, then held constant for 0.8 min, and finally brought back to the initial condition of 10% B over 0.01 min and re-equilibrated for 1 min. The transitions (precursor ion > product ion) of echinomycin, 3 and IS (methyl testosterone) are 1101.45 > 1053.5 (positive), 1083.5 > 523.95 (negative), and 303.1 > 109.1 (positive), respectively.
# [2] = Hepatic microsomal stability assay, human; format: in vitro ADME; conditions: 30 min; for CLint scaled: microsomes, 1 μM; for CLint scaled / CLint scaled at 1 μM: 0.2 mg/mL microsomes, 37 °C; for CLint scaled at 1 μM: human liver microsomes, pH 7.4, 1 μM
# Description: as §1, §2, §3
# SW620 cells = test: WST-8 cytotoxicity assay, SW620; conditions: read-out: IC50 SW620; human colon cancer cell, 72 h, mean ± SE (n = 3)
# Description: (§4) With a range of chromophore analogues in hand, their toxicity to SW620 cells was investigated by WST assays.
# (§5) Basically, the evaluation was performed using methods previously reported by our group[20],[23]. Cytotoxic activities of compounds against MIA PaCa-2 (American Type Culture Collection), SW620 (European Collection of Authenticated Cell Cultures) were measured by WST-8 assay according to manufacturer’s protocol. Briefly, cells (1 × 10^4 cells/well) in a 96-well plate were cultured in medium (for MIA PaCa-2, D-MEM (Wako, Japan) containing 10% fetal bovine serum (Funakoshi, Japan), 100 units/mL penicillin G and 100 µg/mL streptomycin (Wako, Japan), for SW620, RPMI-1640 (Wako, Japan) containing 10% fetal bovine serum, 100 units/mL penicillin G and 100 µg/mL streptomycin) were cultured at 37 °C for 24 h under 5% CO2 atmosphere. Then, cells were treated with test compounds (final DMSO concentration was 1%) at 37 °C for 72 h under 5% CO2 atmosphere. Then, cells were treated with a solution of Cell Counting Kit-8® (Dojindo, Japan) for 3 h. After that, cell viabilities were determined based on the measurement of absorption at 450 nm of the wells by using TECAN Infinite® M200 microplate reader. The results were expressed as a percentage of the negative control (cells treated with DMSO only), and that value was fixed at 100%.
# [3] = Serum biochemistry / blood examination of treated mice; format: in vivo; conditions: 0.4 µg/mouse i.p., Day 14
# Description: (§6) Toxicity Body weight change is an indicator of systemic toxicity. Accordingly, the body weights of mice intraperitoneally treated with different doses (0.04 and 0.4 µg/mouse) of either 1 or 3 were measured (Fig. S1). […] A blood hematological examination (including nineteen parameters) was also conducted on these mice on Day 14 (Fig. S2). There were no significant changes in almost any of the parameters in the mice treated with either 1 or 3 at doses of 0.04 or 0.4 µg/mouse.
# Male BALB/c mice (7 weeks old) were purchased from Charles River Laboratories Japan, Inc. Each compound was intraperitoneally injected daily for 14 days. […] Serum was collected by centrifuging blood at 5000 rpm for 10 min. Biochemistry was performed in Oriental Yeast Co., Ltd, Japan.
# MIA PaCa-2 cells = conditions: read-out: IC50 MIA PaCa-2; human pancreatic carcinoma cell, 72 h, mean ± SE (n = 3)
# Description: as §4, §5
# [4] = Investigation of maximum tolerated dose (body weight of mice); format: in vivo, mouse; conditions: 14 days
# Description: as §6
# [5] = NADPH(+), read-out: Metabolic stability (CLint) Mouse NADPH(+)
# [6] = NADPH(−), read-out: Metabolic stability (CLint) Mouse NADPH(−)
# [7] = NADPH(+), read-out: Metabolic stability (CLint) Human NADPH(+)
# [8] = NADPH(−), read-out: Metabolic stability (CLint) Human NADPH(−)
smiles,measurement,setting,value
CC(C)[C@H]1C(=O)OC[C@@H](NC(=O)c2nc3ccccc3cc2O)C(=O)N[C@@H](C)C(=O)N(C)[C@H]2CSC[C@@H](C(=O)N1C)N(C)C(=O)[C@H](C)NC(=O)[C@H](NC(=O)c1nc3ccccc3cc1O)COC(=O)[C@H](C(C)C)N(C)C2=O [Compound 3],CLint scaled,[1]; [5],386 mL/min/kg
same,CLint scaled,[1]; [6],118 mL/min/kg
same,"remaining at 0.5 h, 1 μM","[2]; liver microsomes, pH 7.4, 37 °C, in the presence of NADPH, read-out: fraction unaffected by human liver microsomes",~67%
same,CLint scaled,[2]; [7],83.7 mL/min/kg
same,CLint scaled,[2]; [8],45.1 mL/min/kg
same,IC50,SW620 cells,0.85 ± 0.13 nM
same,alanine aminotransferase (ALT),[3],increase
same,aspartate aminotransferase (AST),[3],increase
same,lactate dehydrogenase (LDH),[3],increase
same,total bilirubin (T-BIL),[3],decrease
same,IC50,MIA PaCa-2 cells,1.4 ± 0.1 nM
same,body weight,"[4]; i.p. 0.04 and 0.4 µg/mouse, daily",did not differ greatly from those of the control
same,dose up to which no significant toxicity is shown,"[4]; i.p. daily, body weight and blood examination",≥ 0.04 µg/mouse
same,maximum tolerated dose,"[4]; i.p. daily, expected",0.04 µg/mouse
Cc1ncc2n1-c1ccc(Cl)cc1C(c1ccccc1F)=NC2 [Midazolam],CLint scaled at 1 μM,[1]; [5],4010 mL/min/kg
same,CLint scaled at 1 μM,[1]; [6],< 69.8 mL/min/kg
same,CLint scaled at 1 μM,[2]; [7],435 mL/min/kg
same,CLint scaled at 1 μM,[2]; [8],< 22 mL/min/kg
